Reference: ChEMBL document CHEMBL6109117, “Synthesis of an RBM39 Degrader That Downregulates CEP192 and Induces Disorganized Spindle Structures” (J Med Chem, 2025)
Activity calls are given as the source filed them. No cut-off for these calls is given here.

How the values were obtained:
[1] = Effect on RNA splicing in human K562 cells assessed as number of skipping exons at 2 uM incubated for 12 hrs by RNA-seq analysis; assay type: functional
[2] = Effect on RNA splicing in human HCT-116 cells assessed as number of retention of introns at 2 uM incubated for 12 hrs by RNA-seq analysis; assay type: functional
[3] = test system: HCT-116; assay: Induction of spliceosome function impairment in human HCT-116 cells assessed as fold increase in PRPF38A RI transcript at 1 to 10 uM incubated for 12 hrs by qRT-PCR analysis relative to control; assay type: functional; settings: dose 1-10 µM
[4] = test system: HCT-116; assay: Effect on RNA splicing in human HCT-116 cells assessed as CEP192 gene retention of introns at 2 uM incubated for 12 hrs by RNA-seq analysis; assay type: functional, cell-based
[5] = test system: K562; assay: Induction of spliceosome function impairment in human K562 cells assessed as increase in PRPF38A RI transcript incubated for 12 hrs by qRT-PCR analysis; assay type: functional, cell-based; settings: dose 1-10 µM
[6] = test system: MOLM-13; assay: Effect on RNA splicing in human MOLM-13 cells assessed as CEP192 gene skipping exons incubated for 12 hrs by PCR analysis; assay type: functional, cell-based; settings: dose 0.1-10 µM
[7] = test system: Kasumi 1; assay: Induction of RBM39 degradation in human Kasumi 1 cells incubated for 24 hrs by Western blot analysis; assay type: cell-based
[8] = test system: MV4-11; assay: Induction of spliceosome function impairment in human MV4-11 cells assessed as increase in NCKAP1L RI transcript incubated for 12 hrs by qRT-PCR analysis; assay type: functional, cell-based; settings: dose 1-10 µM
[9] = test system: HCT-116; assay: Effect on RNA splicing in human HCT-116 cells assessed as ESPL1 gene alternative 5' splice site at 2 uM incubated for 12 hrs by RNA-seq analysis; assay type: functional, cell-based
[10] = test system: HCT-116; assay: Effect on RNA splicing in human HCT-116 cells assessed as CEP192 gene skipping exons incubated for 12 hrs by PCR analysis; assay type: functional, cell-based; settings: dose <= 10.0 µM
[11] = Effect on RNA splicing in human HCT-116 cells assessed as number of skipping exons at 2 uM incubated for 12 hrs by RNA-seq analysis; assay type: functional
[12] = test system: HCT-116; assay: Induction of cell cycle arrest in human HCT-116 cells assessed as accumulation at G2/M phase at 1 uM incubated for 48 hrs by PI staining based flow cytometry relative to control; assay type: functional
[13] = test system: MV4-11; assay: Effect on RNA splicing in human MV4-11 cells assessed as CEP192 gene retention of introns incubated for 12 hrs by PCR analysis; assay type: functional, cell-based; settings: dose 0.1-10 µM
[14] = test system: HCT-116; assay: Effect on RNA splicing in human HCT-116 cells assessed as number of alternative 3' splice sites at 2 uM incubated for 12 hrs by RNA-seq analysis; assay type: functional
[15] = test system: HCT-116; assay: Effect on RNA splicing in human HCT-116 cells assessed as CEP192 gene retention of introns incubated for 12 hrs by PCR analysis; assay type: functional, cell-based; settings: dose <= 10.0 µM
[16] = test system: K562; assay: Induction of spliceosome function impairment in human K562 cells assessed as increase in NCKAP1L RI transcript incubated for 12 hrs by qRT-PCR analysis; assay type: functional, cell-based; settings: dose 1-10 µM
[17] = test system: K562; assay: Induction of spliceosome function impairment in human K562 cells assessed as increase in CUL4A RI transcript incubated for 12 hrs by qRT-PCR analysis; assay type: functional, cell-based; settings: dose 1-10 µM
[18] = test system: HCT-116; assay: Induction of cell cycle arrest in human HCT-116 cells assessed as accumulation at G2/M phase at 1 uM incubated for 24 hrs by PI staining based flow cytometry relative to control; assay type: functional
[19] = Effect on mitosis in human HCT-116 cells assessed as normal mitotic cells at 1 uM incubated for 48 hrs by immunofluorescence based analysis relative to control; assay type: functional
[20] = test system: MV4-11; assay: Antiproliferative activity against human MV4-11 cells assessed as inhibition of cell growth incubated for 4 days by CCK8 assay; assay type: functional, cell-based; settings: time 4.0 day
[21] = test system: HCT-116; assay: Antitumor activity against human HCT-116 cells xenografted in BALB/c nude mouse at 50 mg/kg, po bid treated for 17 days relative to control; assay type: functional; settings: HCT-116, 408 h, time 17 day, read-out: TGI
[22] = test system: K562; assay: Induction of spliceosome function impairment in human K562 cells assessed as decrease in CUL4A transcript at 1 to 10 uM incubated for 12 hrs by qRT-PCR analysis; assay type: functional, cell-based; settings: dose 1-10 µM
[23] = test system: MV4-11; assay: Induction of spliceosome function impairment in human MV4-11 cells assessed as increase in PRPF38A RI transcript incubated for 12 hrs by qRT-PCR analysis; assay type: functional, cell-based; settings: dose 1-10 µM
[24] = test system: K562; assay: Induction of spliceosome function impairment in human K562 cells assessed as decrease in PRPF38A transcript at 1 to 10 uM incubated for 12 hrs by qRT-PCR analysis; assay type: functional, cell-based; settings: dose 1-10 µM
[25] = test system: Kasumi 1; assay: Effect on RNA splicing in human Kasumi 1 cells assessed as CEP192 gene retention of introns incubated for 12 hrs by PCR analysis; assay type: functional, cell-based; settings: dose 0.1-10 µM
[26] = test system: HCT-116; assay: Induction of RBM39 degradation in human HCT-116 cells incubated for 24 hrs by Western blot analysis; assay type: cell-based
[27] = test system: HCT-116; assay: Induction of cell cycle arrest in human HCT-116 cells assessed as accumulation at G2/M phase at 5 uM incubated for 48 hrs by PI staining based flow cytometry relative to control; assay type: functional
[28] = test system: MV4-11; assay: Induction of spliceosome function impairment in human MV4-11 cells assessed as decrease in CUL4A transcript at 1 to 10 uM incubated for 12 hrs by qRT-PCR analysis; assay type: functional, cell-based; settings: dose 1-10 µM
[29] = test system: MV4-11; assay: Induction of spliceosome function impairment in human MV4-11 cells assessed as decrease in PRPF38A transcript at 1 to 10 uM incubated for 12 hrs by qRT-PCR analysis; assay type: functional, cell-based; settings: dose 1-10 µM
[30] = test system: HCT-116; assay: Effect on RNA splicing in human HCT-116 cells assessed as RTTN gene retention of intron at 2 uM incubated for 12 hrs by RNA-seq analysis; assay type: functional, cell-based
[31] = Effect on RNA splicing in human HCT-116 cells assessed as number of alternative 5' splice sites at 2 uM incubated for 12 hrs by RNA-seq analysis; assay type: functional
[32] = test system: HCT-116; assay: Induction of RBM39 degradation in human HCT-116 cells at 1 uM incubated for 3 to 6 hrs by Western blot analysis; assay type: cell-based; settings: time 3-6 hrs
[33] = test system: RS4-11; assay: Effect on RNA splicing in human RS4;11 cells assessed as CEP192 gene retention of introns incubated for 12 hrs by PCR analysis; assay type: functional, cell-based; settings: dose 0.1-10 µM
[34] = test system: K562; assay: Effect on RNA splicing in human K562 cells assessed as CEP192 gene skipping exons up to 10 uM by PCR analysis; assay type: functional, cell-based; settings: time 1-24 hrs
[35] = Effect on RNA splicing in human K562 cells assessed as retention of introns at 2 uM incubated for 12 hrs by RNA-seq analysis relative to control; assay type: functional
[36] = test system: HCT-116; assay: Induction of spliceosome function impairment in human HCT-116 cells assessed as increase in PRPF38A RI transcript at 1 to 10 uM incubated for 12 hrs by qRT-PCR analysis; assay type: functional, cell-based; settings: dose 1-10 µM
[37] = test system: HCT-116; assay: Induction of spliceosome function impairment in human HCT-116 cells assessed as increase in CUL4A RI transcript at 1 to 10 uM incubated for 12 hrs by qRT-PCR analysis; assay type: functional, cell-based; settings: dose 1-10 µM

Row | SMILES | Activity [2] | Activity [5] | Activity [8] | Activity [9] | Activity [11] | Activity [14] | Activity [16] | Activity [17] | Activity [19] | Activity [22] | Activity [23] | Activity [24] | Activity [26] | Activity [27] | Activity [28] | Activity [29] | Activity [30] | Activity [31] | Activity [34] | other results
1 | Cc1ccc(NS(=O)(=O)c2cccc(NC(=O)C(=O)N3CCC[C@@H]3CO)c2)c2[nH]cc(C#N)c12 | 1098 | Active | Active | Active | 8905 | 745 | Active | Active | 0.8% | Active | Active | Active | Dose-dependent-effect | 60% | Active | Active | Active | 329 | Time-dependent-effect; Observed Skipping Exons 42 And 28 | Activity [1]: 12285; fold change (FC) [3]: 3; Activity [4]: Active; Observed Retention Of Introns Between Exons 27 And 28; Activity [6]: Dose-dependent-effect; Observed Skipping Of Exons 42, 28 And 13; Activity [7]: Dose-dependent-effect; Activity [10]: Dose-dependent-effect; Observed Skipping Of Exons 42, 28 And 13; Activity [12]: 58%; Activity [13]: Dose-dependent-effect; Observed Retention Of Introns Between Exons 27 And 28; Activity [15]: Dose-dependent-effect; Observed Retention Of Introns Between Exons 27 And 28; Activity [18]: 33%; inhibition [20]: Active; inhibition in vivo at 50 mg/kg [21]: 35%; Activity [25]: Dose-dependent-effect; Observed Retention Of Introns Between Exons 27 And 28; Activity [32]: Active; Compound Exhibited Its Efficiency Steadily Increasing From 3 To 48 Hrs; Activity [33]: Dose-dependent-effect; Observed Retention Of Introns Between Exons 27 And 28; Activity [35]: 8.4%
2 | NS(=O)(=O)c1ccc(S(=O)(=O)Nc2cccc3c(Cl)c[nH]c23)cc1 [INDISULAM] | 1378 | Active | Active | Active | 10485 | 836 | Active | Active | 1.4% | Active | Active | Active | Dose-dependent-effect | 55% | Active | Active | Active | 389 | Time-dependent-effect; Observed Skipping Exons 42 And 28 | Activity [36]: Active; Activity [37]: Active
